Test results published in paper PMC7932537, “Quantitative profiling of protease specificity” (PLoS Computational Biology, 2021).

Key:
[1] = target: T1, MMP-2 (Homo sapiens, UniProt P08253); assay: K(obs) of individual phage substrates (set of 1369); assay type: biochemical; settings: MMP2
T1 sequence (P08253 110-660): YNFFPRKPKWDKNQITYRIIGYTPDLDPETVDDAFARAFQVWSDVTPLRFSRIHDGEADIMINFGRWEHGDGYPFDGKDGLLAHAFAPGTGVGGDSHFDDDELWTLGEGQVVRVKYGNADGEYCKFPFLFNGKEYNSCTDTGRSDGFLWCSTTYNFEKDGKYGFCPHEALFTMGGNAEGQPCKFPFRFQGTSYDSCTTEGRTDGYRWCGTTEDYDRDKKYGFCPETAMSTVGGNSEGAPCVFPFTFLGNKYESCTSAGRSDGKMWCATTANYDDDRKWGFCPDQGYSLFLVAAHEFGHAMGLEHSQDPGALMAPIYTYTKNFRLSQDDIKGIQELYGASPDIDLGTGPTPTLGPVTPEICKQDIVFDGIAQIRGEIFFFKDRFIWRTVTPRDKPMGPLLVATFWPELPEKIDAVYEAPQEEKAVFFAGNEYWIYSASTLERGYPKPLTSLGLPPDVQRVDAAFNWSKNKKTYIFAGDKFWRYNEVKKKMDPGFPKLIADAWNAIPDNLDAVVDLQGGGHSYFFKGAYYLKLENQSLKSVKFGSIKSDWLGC

[2] = target: MMP-9 (Homo sapiens, UniProt P14780); assay: as above; assay type: biochemical; settings: MMP9, individual phage substrates, set of 1369 peptides
[3] = individual phage substrate from the set of 1369 peptides, cleavage position marked by the dash in the sequence
[4] = dash in sequence marks cleavage position
[5] = individual phage substrates, set of 1369 peptides, cleavage position marked by '-' in the sequence
[6] = '-' marks the cleavage position (P1-P1')

Sequence of MMP-9 (P14780 94-707): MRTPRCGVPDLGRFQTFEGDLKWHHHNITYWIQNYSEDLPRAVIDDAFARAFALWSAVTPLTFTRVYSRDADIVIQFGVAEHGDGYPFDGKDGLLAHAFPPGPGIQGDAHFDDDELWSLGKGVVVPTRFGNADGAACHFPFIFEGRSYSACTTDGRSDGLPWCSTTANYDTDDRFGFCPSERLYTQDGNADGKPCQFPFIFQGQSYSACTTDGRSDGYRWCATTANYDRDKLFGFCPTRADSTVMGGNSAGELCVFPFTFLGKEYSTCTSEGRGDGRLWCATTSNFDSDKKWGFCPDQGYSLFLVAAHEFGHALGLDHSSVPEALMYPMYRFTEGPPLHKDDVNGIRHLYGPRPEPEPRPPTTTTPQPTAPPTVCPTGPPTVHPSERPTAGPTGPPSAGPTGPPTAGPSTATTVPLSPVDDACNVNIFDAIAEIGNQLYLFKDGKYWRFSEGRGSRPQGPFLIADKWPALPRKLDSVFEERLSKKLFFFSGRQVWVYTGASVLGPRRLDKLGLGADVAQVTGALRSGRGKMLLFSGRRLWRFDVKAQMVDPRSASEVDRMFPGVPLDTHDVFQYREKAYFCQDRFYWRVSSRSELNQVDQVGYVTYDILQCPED

Row | Substance | Kobs [1, 3] [M⁻¹ s⁻¹] | Kobs [2, 4] [M⁻¹ s⁻¹] | Kobs [1, 5] [M⁻¹ s⁻¹] | Kobs [2, 6] [M⁻¹ s⁻¹]
1 | SGVGM-LYNTA | 1373.05 | 0 | – | –
2 | TMPYL-LTASG | 1870.4 | 7815.03 | – | –
3 | CCSLA-LTASG | 551.253 | 386.839 | – | –
4 | HRPFG-LTASG | – | – | 12792.1 | 12792.1
5 | SGAVA-LRLTA | – | – | 1981.53 | 3438.54
6 | SGVWG-IRYTA | – | – | 654.784 | 1925.41
7 | GGSGR-LLQFL | – | – | 8321.48 | 0
8 | GGSGR-LVLRV | – | – | 0 | 0
9 | RVPRG-LTASG | – | – | 12792.1 | 12792.1
10 | SDIRW-LTASG | – | – | 7386.83 | 4335.13
11 | GGSGE-LRLSN | – | – | 56.119 | 0
12 | GGHQW-LRTAS | 2687.73 | 0 | – | –
13 | GVAGA-LYTAS | – | – | 2097.28 | 0
14 | GGSGQ-LFNVG | 4470.66 | 762.325 | – | –
15 | SGPKQ-LTRTA | – | – | 0 | 1465.65
16 | SGPQA-VVKTA | 1071.29 | 517.582 | – | –
17 | RNVNF-LTASG | 2409.72 | 484.315 | – | –
18 | SMPRM-LTASG | – | – | 12792.1 | 10866.7
19 | GWVGH-LSTAS | 10866.7 | 386.839 | – | –
20 | GGSGF-LVRSL | – | – | 9740.44 | 10866.7
21 | NFPMS-LTASG | – | – | 12792.1 | 12792.1
22 | VHAVW-LTASG | – | – | 12792.1 | 12792.1

Row | Substance | Kobs [1, 3] [M⁻¹ s⁻¹] | Kobs [2, 4] [M⁻¹ s⁻¹] | Kobs [1, 5] [M⁻¹ s⁻¹] | Kobs [2, 6] [M⁻¹ s⁻¹]
23 | SGMLS-LVITA | – | – | 0 | 0
24 | ELAWH-LTASG | 1981.53 | 1373.05 | – | –
25 | GGSGS-LTFNT | 0 | 0 | – | –
26 | GSGNR-LMRLT | – | – | 0 | 0
27 | VRTMA-LTASG | – | – | 142.481 | 1030.73
28 | GSAHL-LLTAS | – | – | 27.918 | 0
29 | SGIES-MYVTA | – | – | 0 | 0
30 | YKAFT-MTASG | 113.394 | 386.839 | – | –
31 | GGSGS-LNQRL | 585.336 | 0 | – | –
32 | HVLQN-LTASG | – | – | 12792.1 | 201.585
33 | SGLLN-MYITA | – | – | 0 | 0
34 | IEYLN-YTASG | – | – | 231.616 | 355.093
35 | PTLWR-ITASG | 386.839 | 0 | – | –
36 | PDVFA-LTASG | – | – | 3637.04 | 6688.74
37 | GHLAS-QRTAS | – | – | 1870.4 | 0
38 | GMVLN-LTASG | – | – | 12792.1 | 7015.91
39 | SSYAH-LTASG | – | – | 5269.78 | 0
40 | GGSGP-LMLPF | – | – | 3964.21 | 517.582
41 | MFHLN-ITASG | – | – | 1373.05 | 690.17
42 | GQPFA-LSTAS | – | – | 12792.1 | 12792.1
43 | GGSGR-LRLAI | 0 | 0 | – | –
44 | SGPSN-MLRTA | – | – | 5889.62 | 3964.21

Row | Substance | Kobs [1, 3] [M⁻¹ s⁻¹] | Kobs [2, 4] [M⁻¹ s⁻¹] | Kobs [1, 5] [M⁻¹ s⁻¹] | Kobs [2, 6] [M⁻¹ s⁻¹]
45 | TTALW-LTASG | 6131.32 | 4922.1 | – | –
46 | SGVNS-LRRTA | – | – | 726.013 | 0
47 | RYPVN-MTASG | – | – | 6688.74 | 5090.5
48 | SGSYP-LTRTA | 0 | 0 | – | –
49 | SGVNS-LFTTA | 323.705 | 0 | – | –
50 | GVPQW-IHTAS | – | – | 4335.13 | 5889.62
51 | SGPLS-ILNTA | – | – | 8941.32 | 12792.1
52 | ELYAS-LTASG | – | – | 12792.1 | 0
53 | GGSGR-LKWNL | 551.253 | 690.17 | – | –
54 | PMARY-LTASG | – | – | 12792.1 | 3637.04
55 | SGARN-LMATA | – | – | 10866.7 | 12792.1
56 | VAISR-LTASG | 12792.1 | 113.394 | – | –
57 | MVPSA-LTASG | – | – | 7015.91 | 8941.32
58 | SGVAP-LILTA | – | – | 0 | 142.481
59 | PVVWW-QTASG | – | – | 836.403 | 5461.43
60 | VYSAY-LTASG | 8941.32 | 142.481 | – | –
61 | SGPMS-LRMTA | – | – | 7386.83 | 12792.1
62 | SGVMY-LQVTA | 0 | 654.784 | – | –
63 | SGYAH-MRVTA | – | – | 0 | 0
64 | GWMHE-LKTAS | – | – | 0 | 0
65 | YFPLD-MTASG | 3637.04 | 7815.03 | – | –
66 | FTPLN-MTASG | – | – | 12792.1 | 10866.7

Other lines, results leading:

Row | Kobs [1, 3] [M⁻¹ s⁻¹] | Kobs [2, 4] [M⁻¹ s⁻¹] | Kobs [1, 5] [M⁻¹ s⁻¹] | Kobs [2, 6] [M⁻¹ s⁻¹] | Substance
67 | – | – | 517.582 | 201.585 | GKVNN-LVTAS
68 | 2837.92 | 231.616 | – | – | ERLLH-LTASG
69 | 4470.66 | 2476.66 | – | – | YSPSL-ITASG
70 | – | – | 171.876 | 171.876 | SGALG-LLETA
71 | – | – | 12792.1 | 12792.1 | SGPSD-LHATA
72 | – | – | 3964.21 | 3253.29 | QAAFH-LTASG
73 | 0 | 292.668 | – | – | TWAKM-LTASG
74 | 10866.7 | 10866.7 | – | – | HWPRF-LTASG
75 | 171.876 | 201.585 | – | – | GHAHH-LYTAS
76 | 0 | 0 | – | – | GNADL-IMTAS
77 | – | – | 5889.62 | 2409.72 | DILRH-LTASG
78 | 1465.65 | 3344.37 | – | – | ERIWA-LTASG
79 | – | – | 799.117 | 0 | EHNLP-LTASG
80 | – | – | 0 | 0 | GPVMR-MSTAS
81 | – | – | 451.441 | 84.609 | GGASG-LMTAS
82 | – | – | 2218.08 | 4470.66 | CCAMG-LTASG
83 | 4082.43 | 3438.54 | – | – | DYARA-MTASG
84 | 292.668 | 0 | – | – | GFHRS-IRTAS
85 | 0 | 0 | – | – | GSGQG-LRMGT

Row | Kobs [1, 3] [M⁻¹ s⁻¹] | Kobs [2, 4] [M⁻¹ s⁻¹] | Kobs [1, 5] [M⁻¹ s⁻¹] | Kobs [2, 6] [M⁻¹ s⁻¹] | Substance
86 | 3344.37 | 0 | – | – | LGWSS-LTASG
87 | 0 | 84.609 | – | – | TTSLR-LTASG
88 | – | – | 2409.72 | 12792.1 | SGPWG-LLETA
89 | – | – | 951.362 | 231.616 | ELPNF-LTASG
90 | 0 | 1071.29 | – | – | RGVWK-LTASG
91 | 6396.07 | 2097.28 | – | – | NSPQL-LTASG
92 | – | – | 171.876 | 113.394 | SGAQA-LTLTA
93 | 484.315 | 4922.1 | – | – | GVPFM-ILTAS
94 | 2038.8 | 1925.41 | – | – | KWPER-LTASG
95 | 56.119 | 201.585 | – | – | GFAKH-LLTAS
96 | 231.616 | 1513.13 | – | – | SGVRF-MRQTA
97 | – | – | 0 | 56.119 | RDLWK-LTASG
98 | – | – | 0 | 56.119 | GNAMR-MVTAS
99 | – | – | 619.843 | 690.17 | SWGLA-LTASG
100 | 12792.1 | 12792.1 | – | – | GKPQN-LRTAS
101 | – | – | 12792.1 | 10866.7 | GAPAF-LKTAS
102 | 12792.1 | 12792.1 | – | – | RRVLA-LTASG
103 | – | – | 10866.7 | 10866.7 | HLVAW-LTASG
